Assay results: patent US9073855B2, “BCL-2 selective apoptosis-inducing agents for the treatment of cancer and immune diseases” (AbbVie Inc., priority 2008, dated 2015)

Tests used:
GST-Bcl-XL = GST-Bcl-XL (Homo sapiens, UniProt Q07817); experiment: TR-FRET binding assay, GST-Bcl-XL with F-Bak peptide probe; details: TR-FRET Binding Affinity
Outline: (§1)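 Competitive TR-FRET: GST-fusion protein, fluorescent Bak peptide probe and Tb-labelled anti-GST antibody incubated with compound dilution series (starting 50 μM as 2× stock, 10% DMSO) for 3 h at RT. Excitation 340/35 nm; Ki derived via Wang's exact competitive-binding equation.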

GST-Bcl-2 = GST-Bcl-2 (Homo sapiens, UniProt P10415); experiment: TR-FRET binding assay, GST-Bcl-2 with F-Bak peptide probe; details: for Ki: TR-FRET Binding Affinity
Chain of GST-Bcl-2 (P10415 whole entry): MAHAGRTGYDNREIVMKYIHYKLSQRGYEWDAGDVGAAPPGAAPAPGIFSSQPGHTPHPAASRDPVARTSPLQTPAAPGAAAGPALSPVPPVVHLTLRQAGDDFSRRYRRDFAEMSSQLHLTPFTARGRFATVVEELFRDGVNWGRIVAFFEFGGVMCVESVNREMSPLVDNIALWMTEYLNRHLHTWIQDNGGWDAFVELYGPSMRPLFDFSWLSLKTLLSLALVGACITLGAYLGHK
Outline: as §1

[1] = GST-Bcl-XL, F-Bak peptide probe
[2] = TR-FRET, Bcl-XL Ki divided by Bcl-2 Ki
[3] = ratio of TR-FRET Ki values, Bcl-XL over Bcl-2

Chain of GST-Bcl-XL (Q07817 whole entry, the tested form may be a part): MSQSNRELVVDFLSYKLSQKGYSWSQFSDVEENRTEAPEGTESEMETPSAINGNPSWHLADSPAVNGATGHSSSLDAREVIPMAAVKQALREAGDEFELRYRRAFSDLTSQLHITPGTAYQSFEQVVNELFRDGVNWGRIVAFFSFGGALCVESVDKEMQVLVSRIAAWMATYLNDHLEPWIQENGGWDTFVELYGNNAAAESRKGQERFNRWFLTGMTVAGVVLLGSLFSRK

| Compound | Ki (GST-Bcl-XL; [1]) [nM] | Ki (GST-Bcl-2; GST-Bcl-2, F-Bak peptide probe) [nM] | Ki (GST-Bcl-XL) [nM] | Ki (GST-Bcl-2) [nM] | Binding selectivity ratio (Bcl-XL Ki/Bcl-2 Ki) (GST-Bcl-2; [2]) | Binding selectivity ratio (Bcl-XL Ki/Bcl-2 Ki) (GST-Bcl-2; [3]) |
| --- | --- | --- | --- | --- | --- | --- |
| O=C(NS(=O)(=O)c1ccc(NCCCN2CCCC2)c([N+](=O)[O-])c1)c1ccc(N2CCN(Cc3ccccc3-c3ccc(Cl)cc3)CC2)cc1Oc1ccccc1 [Example 91, 4-{4-[(4′-chloro-1,1′-biphenyl-2-yl)methyl]piperazin-1-yl}-N-({3-nitro-4-[(3-pyrrolidin-1-ylpropyl)amino]phenyl}sulfonyl)-2-phenoxybenzamide] | 10.2 | 0.193 |  |  |  |  |
| CC1(C)CCC(CN2CCN(c3ccc(C(=O)NS(=O)(=O)c4ccc(NC[C@H]5CC[C@](C)(O)CC5)c([N+](=O)[O-])c4)c(Oc4cccc5[nH]ncc45)c3)CC2)=C(c2ccc(Cl)cc2)C1 [Example 525, 4-(4-{[2-(4-chlorophenyl)-4,4-dimethylcyclohex-1-en-1-yl]methyl}piperazin-1-yl)-N-[(4-{[(trans-4-hydroxy-4-methylcyclohexyl)methyl]amino}-3-nitrophenyl)sulfonyl]-2-(1H-indazol-4-yloxy)benzamide] |  |  | 19 | < 0.01 | >1898.4 |  |
| CC1(C)CCC(CN2CCN(c3ccc(C(=O)NS(=O)(=O)c4cnc(OC[C@@H]5C[C@H]6C[C@@H]5C[C@@]6(C)O)c(Cl)c4)c(Oc4cccc5[nH]ncc45)c3)CC2)=C(c2ccc(Cl)cc2)C1 [Example 520, N-[(5-chloro-6-{[(1R,2R,4R,5R)-5-hydroxy-5-methylbicyclo[2.2.1]hept-2-yl]methoxy}pyridin-3-yl)sulfonyl]-4-(4-{[2-(4-chlorophenyl)-4,4-dimethylcyclohex-1-en-1-yl]methyl}piperazin-1-yl)-2-(1H-indazol-4-yloxy)benzamide] |  |  | 15.4 | < 0.01 | >1537.8 |  |
| COCCOCCN1CC[C@@H](Nc2ccc(S(=O)(=O)NC(=O)c3ccc(N4CCN(CC5=C(c6ccc(Cl)cc6)CC(C)(C)CC5)CC4)cc3Oc3cccc4[nH]cnc34)cc2[N+](=O)[O-])C1 [Example 429, 2-(1H-benzimidazol-4-yloxy)-4-(4-{[2-(4-chlorophenyl)-4,4-dimethylcyclohex-1-en-1-yl]methyl}piperazin-1-yl)-N-{[4-({(3R)-1-[2-(2-methoxyethoxy)ethyl]pyrrolidin-3-yl}amino)-3-nitrophenyl]sulfonyl}benzamide] | 1.41 | < 0.01 |  |  |  | 140.7 |
| CC1(C)CCC(CN2CCN(c3ccc(C(=O)NS(=O)(=O)c4cnc(OC[C@H]5CC[C@H](O)CC5)c(Cl)c4)c(Oc4cccc5[nH]ncc45)c3)CC2)=C(c2ccc(Cl)cc2)C1 [Example 421, Trans-N-({5-chloro-6-[(4-hydroxycyclohexyl)methoxy]pyridin-3-yl}sulfonyl)-4-(4-{[2-(4-chlorophenyl)-4,4-dimethylcyclohex-1-en-1-yl]methyl}piperazin-1-yl)-2-(1H-indazol-4-yloxy)benzamide] | 54 | 0.026 |  |  |  | 2089.5 |
| CC1(C)CCC(CN2CCN(c3ccc(C(=O)NS(=O)(=O)c4ccc(NC5CCN(C6CCOCC6)CC5)c([N+](=O)[O-])c4)c(Nc4cccnc4)c3)CC2)=C(c2ccc(Cl)cc2)C1 [Example 397, 4-(4-{[2-(4-chlorophenyl)-4,4-dimethylcyclohex-1-en-1-yl]methyl}piperazin-1-yl)-N-({3-nitro-4-[(1-tetrahydro-2H-pyran-4-ylpiperidin-4-yl)amino]phenyl}sulfonyl)-2-(pyridin-3-ylamino)benzamide] | > 660000 | 23 |  |  |  | >28730.6 |
| CC1(C)CCC(c2ccc(Cl)cc2)=C(CN2CCN(c3ccc(C(=O)NS(=O)(=O)c4ccc(NCCCN5CCOCC5)c([N+](=O)[O-])c4)c(Oc4ccc5[nH]ccc5c4)c3)CC2)C1 [Example 50, 4-(4-{[2-(4-chlorophenyl)-5,5-dimethylcyclohex-1-en-1-yl]methyl}piperazin-1-yl)-2-(1H-indol-5-yloxy)-N-({4-[(3-morpholin-4-ylpropyl)amino]-3-nitrophenyl}sulfonyl)benzamide] | 90.1 | 0.471 |  |  |  |  |
| O=C(NS(=O)(=O)c1ccc(NCCCN2CCOCC2)c([N+](=O)[O-])c1)c1ccc(N2CCN(Cc3ccccc3-c3ccc(Cl)cc3)CC2)cc1Oc1cccc2[nH]ccc12 [Example 58, 4-{4-[(4′-chloro-1,1′-biphenyl-2-yl)methyl]piperazin-1-yl}-2-(1H-indol-4-yloxy)-N-({4-[(3-morpholin-4-ylpropyl)amino]-3-nitrophenyl}sulfonyl)benzamide] | 288 | 1.08 |  |  |  |  |
| Cn1cncc1COc1ncc(S(=O)(=O)NC(=O)c2ccc(N3CCN(CC4=C(c5ccc(Cl)cc5)CC(C)(C)CC4)CC3)cc2Oc2cccc3[nH]ncc23)cc1Cl [Example 486, N-({5-chloro-6-[(1-methyl-1H-imidazol-5-yl)methoxy]pyridin-3-yl}sulfonyl)-4-(4-{[2-(4-chlorophenyl)-4,4-dimethylcyclohex-1-en-1-yl]methyl}piperazin-1-yl)-2-(1H-indazol-4-yloxy)benzamide] |  |  | 25.5 | 0.328 | 77.6 |  |
| O=C(NS(=O)(=O)c1ccc(NCCCN2CCOCC2)cc1)c1ccc(N2CCN(Cc3ccccc3-c3ccc(Cl)cc3)CC2)cc1Oc1ccccc1 [Example 78, 4-{4-[(4′-chloro-1,1′-biphenyl-2-yl)methyl]piperazin-1-yl}-N-({4-[(3-morpholin-4-ylpropyl)amino]phenyl}sulfonyl)-2-phenoxybenzamide] | > 660 | 113 |  |  |  |  |
| O=C(NS(=O)(=O)c1ccc(NCCc2ccncc2)c([N+](=O)[O-])c1)c1ccc(N2CCN(Cc3ccccc3-c3ccc(Cl)cc3)CC2)cc1Oc1ccccc1 [Example 169, 4-{4-[(4′-chloro-1,1′-biphenyl-2-yl)methyl]piperazin-1-yl}-N-({3-nitro-4-[(2-pyridin-4-ylethyl)amino]phenyl}sulfonyl)-2-phenoxybenzamide] | 88.6 | 0.97 |  |  |  |  |
| CC1(C)CCC(CN2CCN(c3ccc(C(=O)NS(=O)(=O)c4ccc(NC5CCN(C6CCOCC6)CC5)c([N+](=O)[O-])c4)c(Oc4cccc5[nH]cnc45)c3)CC2)=C(c2ccc(Cl)cc2)C1 [Example 417, 2-(1H-benzimidazol-4-yloxy)-4-(4-{[2-(4-chlorophenyl)-4,4-dimethylcyclohex-1-en-1-yl]methyl}piperazin-1-yl)-N-({3-nitro-4-[(1-tetrahydro-2H-pyran-4-ylpiperidin-4-yl)amino]phenyl}sulfonyl)benzamide] | 3.99 | 0.046 |  |  |  | 87.1 |
| CC1(C)CCC(CN2CCN(c3ccc(C(=O)NS(=O)(=O)c4ccc(N[C@@H]5CCN(C(CF)CF)C5)c([N+](=O)[O-])c4)c(Oc4cccc5[nH]ncc45)c3)CC2)=C(c2ccc(Cl)cc2)C1 [Example 435, 4-(4-{[2-(4-chlorophenyl)-4,4-dimethylcyclohex-1-en-1-yl]methyl}piperazin-1-yl)-N-{[4-({(3R)-1-[2-fluoro-1-(fluoromethyl)ethyl]pyrrolidin-3-yl}amino)-3-nitrophenyl]sulfonyl}-2-(1H-indazol-4-yloxy)benzamide] | 32.9 | 0.017 |  |  |  |  |
| CC1(C)CCC(CN2CCN(c3ccc(C(=O)NS(=O)(=O)c4cnc(OC[C@H]5CC[C@H](C(N)=O)CC5)c(Cl)c4)c(Oc4cccc5[nH]ncc45)c3)CC2)=C(c2ccc(Cl)cc2)C1 [Example 483, N-({6-[(trans-4-carbamoylcyclohexyl)methoxy]-5-chloropyridin-3-yl}sulfonyl)-4-(4-{[2-(4-chlorophenyl)-4,4-dimethylcyclohex-1-en-1-yl]methyl}piperazin-1-yl)-2-(1H-indazol-4-yloxy)benzamide] |  |  | 5.63 | < 0.01 | >563.0 |  |
| CC1(C)CCC(CN2CCN(c3ccc(C(=O)NS(=O)(=O)c4cnc(O[C@@H]5CCN(CC(F)F)C5)c(Cl)c4)c(Oc4cccc5[nH]ncc45)c3)CC2)=C(c2ccc(Cl)cc2)C1 [Example 422, N-[(5-chloro-6-{[(3R)-1-(2,2-difluoroethyl)pyrrolidin-3-yl]oxy}pyridin-3-yl)sulfonyl]-4-(4-{[2-(4-chlorophenyl)-4,4-dimethylcyclohex-1-en-1-yl]methyl}piperazin-1-yl)-2-(1H-indazol-4-yloxy)benzamide] | 290 | 0.071 |  |  |  | 4073.4 |
| CC1(C)CCC(CN2CCN(c3ccc(C(=O)NS(=O)(=O)c4ccc(NC5CCN(C6CC6)CC5)c([N+](=O)[O-])c4)c(Oc4cccc5[nH]cnc45)c3)CC2)=C(c2ccc(Cl)cc2)C1 [Example 451, 2-(1H-benzimidazol-4-yloxy)-4-(4-{[2-(4-chlorophenyl)-4,4-dimethylcyclohex-1-en-1-yl]methyl}piperazin-1-yl)-N-({4-[(1-cyclopropylpiperidin-4-yl)amino]-3-nitrophenyl}sulfonyl)benzamide] |  |  | 3.6 | < 0.01 | 359.9 |  |
| CC1(C)CCC(CN2CCN(c3ccc(C(=O)NS(=O)(=O)c4cnc(OCCC5CCCO5)c(Cl)c4)c(Oc4cccc5[nH]ncc45)c3)CC2)=C(c2ccc(Cl)cc2)C1 (stereo not drawn) [Example 461, 4-(4-{[2-(4-chlorophenyl)-4,4-dimethylcyclohex-1-en-1-yl]methyl}piperazin-1-yl)-N-{[5-chloro-6-(2-tetrahydrofuran-2-ylethoxy)pyridin-3-yl]sulfonyl}-2-(1H-indazol-4-yloxy)benzamide] |  |  | 3.65 | 0.093 | 39.4 |  |
